{"source": "patent US9512402B2", "about": "“Compositions for the preparation of mature dendritic cells” (Helmholtz Zentrum Munchen Deutsches Forschungszentrum fur …, priority 2006, dated 2016)", "origin": "cited, not measured here", "system": "mature DCs", "conditions": "DCs matured only with IFNα; Frankenberger 2005"}
{"substance": "IFNα", "values": [{"measurement": "EGFP protein expression following RNA transfer", "result": "failed to express EGFP protein"}]}
